Where two headings read alike, the source gives them in different places.
How the values were obtained:
[1] = target: ErbB2 with Exon 20 YVMA insertion (HER2-YVMA) (Homo sapiens (Human), UniProt P04626, INS775YVMA); assay: Cellular phosphorylation assay, constitutive ErbB2 phosphorylation (Y1196) in engineered NIH 3T3 cells, Assay 4; assay type: cell-based
How it was run: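 In-cell Western in NIH 3T3 cells carrying ErbB2 exon 20 YVMA insertion, with no ligand stimulation. One hour compound exposure at 37 °C before fixation and anti-pY1196 plus GAPDH staining with dual-wavelength fluorescence. IC50 derived after GAPDH normalization.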

[2] = target: EGFR (Homo sapiens (Human), UniProt P00533); assay: ErbB enzyme assay (CisBio HTRF KinEASE-TK), Assay 3; assay type: biochemical
How it was run: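 IC50 was taken where a 4-parameter logistic fit crossed 50 percent of control (DMSO 100, pre-quenched 0), read by ratiometric HTRF. Reactions ran 30 min at 22 °C with 1 mM ATP and 250 nM TK-substrate biotin in pH 7.4 HEPES buffer with MgCl2, Triton X-100 and 2% DMSO.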

[3] = target: EGFR wild type (EGFR WT) (Homo sapiens (Human), UniProt P00533); assay: Cellular phosphorylation assay, EGF-stimulated EGFR phosphorylation in engineered NIH 3T3 cells, Phospho-EGFR DuoSet IC ELISA, Assay 5; assay type: cell-based
How it was run: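 Phospho-EGFR ELISA on lysates of engineered NIH 3T3 EGFR WT cells, IC50 derived from concentration curves. Cells plated at 20,000/well overnight, given compound dilutions 1 h at 37 °C, then rEGF 100 ng/ml for a further 10 min before lysis.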

[4] = target: BCRP (Homo sapiens (Human), UniProt Q9UNQ0); assay: BCRP transfected MDCKII canine Mdr1 knockout permeability/efflux, Assay 9; conditions: efflux ratio Papp(B-A)/Papp(A-B), BCRP transfected MDCKII canine Mdr1 knockout; for efflux ratio at 2 h, 1 μM: dog, Assay 9 Pe Ratio
[5] = target: ErbB2 insYVMA (HER2-YVMA, SEQ ID NO: 2) (Homo sapiens, UniProt P04626, INS775YVMA/P1170A); assay: biochemical; conditions: ErbB2 insYVMA enzyme assay
[6] = target: MDR1 (P-gp) (Homo sapiens (Human), UniProt P08183); assay: MDR1 transfected LLC-PK1 permeability/efflux, Assay 6; conditions: efflux ratio Papp(B-A)/Papp(A-B), MDR1 transfected LLC-PK1; for efflux ratio at 2 h, 1 μM: pig, LLC-PK1, Assay 6 Pe Ratio
[7] = target: ErbB2 WT (Homo sapiens (Human), UniProt P04626); assay: ErbB enzyme assay (CisBio HTRF KinEASE-TK), Assay 2; assay type: biochemical
How it was run: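 Readout is HTRF KinEASE-TK, using Sa-XL665 and cryptate antibody for 1 h at 22 °C, as percent of control between DMSO-only (100) and pre-quenched (0) reactions. The kinase reaction runs 30 min at 22 °C with 1 mM ATP and 250 nM biotinylated TK substrate, in HEPES pH 7.4 with MgCl2 and 2% DMSO.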

ErbB2 with Exon 20 YVMA insertion (HER2-YVMA), sequence (P04626 other isoform, or with tags, fused parts or gaps ins YVMA behind 775): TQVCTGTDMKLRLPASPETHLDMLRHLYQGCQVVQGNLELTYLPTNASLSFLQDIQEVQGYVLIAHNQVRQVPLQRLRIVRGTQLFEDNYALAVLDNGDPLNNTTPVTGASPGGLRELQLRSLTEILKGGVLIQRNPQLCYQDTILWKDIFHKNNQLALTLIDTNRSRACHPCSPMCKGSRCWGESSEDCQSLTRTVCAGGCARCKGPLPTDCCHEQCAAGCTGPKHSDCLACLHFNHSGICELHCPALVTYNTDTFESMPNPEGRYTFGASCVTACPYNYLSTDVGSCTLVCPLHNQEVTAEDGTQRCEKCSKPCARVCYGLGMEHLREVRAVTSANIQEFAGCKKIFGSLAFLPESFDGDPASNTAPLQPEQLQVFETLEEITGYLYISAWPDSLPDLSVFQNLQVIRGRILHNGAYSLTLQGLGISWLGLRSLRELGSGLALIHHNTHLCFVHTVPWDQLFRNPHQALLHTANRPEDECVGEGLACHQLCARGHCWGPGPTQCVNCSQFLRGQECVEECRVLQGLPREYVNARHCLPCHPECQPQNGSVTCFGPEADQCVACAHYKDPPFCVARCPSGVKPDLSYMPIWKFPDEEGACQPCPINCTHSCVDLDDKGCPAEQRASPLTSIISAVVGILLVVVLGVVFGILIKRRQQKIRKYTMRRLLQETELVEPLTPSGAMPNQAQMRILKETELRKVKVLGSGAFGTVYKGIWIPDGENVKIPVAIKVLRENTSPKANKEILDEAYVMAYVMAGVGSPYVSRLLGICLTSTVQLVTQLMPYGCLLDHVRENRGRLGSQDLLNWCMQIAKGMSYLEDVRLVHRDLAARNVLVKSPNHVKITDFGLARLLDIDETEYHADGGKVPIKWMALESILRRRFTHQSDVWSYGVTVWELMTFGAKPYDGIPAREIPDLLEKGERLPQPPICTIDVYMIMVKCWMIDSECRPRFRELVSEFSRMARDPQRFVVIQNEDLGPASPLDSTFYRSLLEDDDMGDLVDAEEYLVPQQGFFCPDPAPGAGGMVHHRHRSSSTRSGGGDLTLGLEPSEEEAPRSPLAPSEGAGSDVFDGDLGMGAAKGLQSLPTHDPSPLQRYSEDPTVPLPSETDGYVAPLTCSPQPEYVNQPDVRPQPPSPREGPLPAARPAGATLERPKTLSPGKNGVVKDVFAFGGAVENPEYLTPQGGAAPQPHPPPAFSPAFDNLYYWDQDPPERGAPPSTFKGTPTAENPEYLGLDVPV
BCRP, sequence (Q9UNQ0 whole entry): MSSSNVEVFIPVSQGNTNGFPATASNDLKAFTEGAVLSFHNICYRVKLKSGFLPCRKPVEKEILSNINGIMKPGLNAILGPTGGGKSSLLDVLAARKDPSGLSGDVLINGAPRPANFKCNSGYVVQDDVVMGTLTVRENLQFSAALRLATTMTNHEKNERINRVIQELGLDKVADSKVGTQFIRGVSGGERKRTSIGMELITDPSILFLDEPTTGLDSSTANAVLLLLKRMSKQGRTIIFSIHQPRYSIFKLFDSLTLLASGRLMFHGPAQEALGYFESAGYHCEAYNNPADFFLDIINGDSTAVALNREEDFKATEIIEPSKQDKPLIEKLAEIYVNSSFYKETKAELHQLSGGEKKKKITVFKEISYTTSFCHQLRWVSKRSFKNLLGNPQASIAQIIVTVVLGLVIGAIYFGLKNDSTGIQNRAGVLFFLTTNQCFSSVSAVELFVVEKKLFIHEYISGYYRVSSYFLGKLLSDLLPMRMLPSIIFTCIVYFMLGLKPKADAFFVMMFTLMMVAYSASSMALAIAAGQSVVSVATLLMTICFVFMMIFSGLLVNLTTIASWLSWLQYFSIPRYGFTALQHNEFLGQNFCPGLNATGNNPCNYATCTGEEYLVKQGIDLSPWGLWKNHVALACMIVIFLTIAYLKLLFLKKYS
ErbB2 insYVMA (HER2-YVMA, SEQ ID NO: 2), sequence (P04626 with tags, fused parts or gaps INS775YVMA/P1170A limits assumed): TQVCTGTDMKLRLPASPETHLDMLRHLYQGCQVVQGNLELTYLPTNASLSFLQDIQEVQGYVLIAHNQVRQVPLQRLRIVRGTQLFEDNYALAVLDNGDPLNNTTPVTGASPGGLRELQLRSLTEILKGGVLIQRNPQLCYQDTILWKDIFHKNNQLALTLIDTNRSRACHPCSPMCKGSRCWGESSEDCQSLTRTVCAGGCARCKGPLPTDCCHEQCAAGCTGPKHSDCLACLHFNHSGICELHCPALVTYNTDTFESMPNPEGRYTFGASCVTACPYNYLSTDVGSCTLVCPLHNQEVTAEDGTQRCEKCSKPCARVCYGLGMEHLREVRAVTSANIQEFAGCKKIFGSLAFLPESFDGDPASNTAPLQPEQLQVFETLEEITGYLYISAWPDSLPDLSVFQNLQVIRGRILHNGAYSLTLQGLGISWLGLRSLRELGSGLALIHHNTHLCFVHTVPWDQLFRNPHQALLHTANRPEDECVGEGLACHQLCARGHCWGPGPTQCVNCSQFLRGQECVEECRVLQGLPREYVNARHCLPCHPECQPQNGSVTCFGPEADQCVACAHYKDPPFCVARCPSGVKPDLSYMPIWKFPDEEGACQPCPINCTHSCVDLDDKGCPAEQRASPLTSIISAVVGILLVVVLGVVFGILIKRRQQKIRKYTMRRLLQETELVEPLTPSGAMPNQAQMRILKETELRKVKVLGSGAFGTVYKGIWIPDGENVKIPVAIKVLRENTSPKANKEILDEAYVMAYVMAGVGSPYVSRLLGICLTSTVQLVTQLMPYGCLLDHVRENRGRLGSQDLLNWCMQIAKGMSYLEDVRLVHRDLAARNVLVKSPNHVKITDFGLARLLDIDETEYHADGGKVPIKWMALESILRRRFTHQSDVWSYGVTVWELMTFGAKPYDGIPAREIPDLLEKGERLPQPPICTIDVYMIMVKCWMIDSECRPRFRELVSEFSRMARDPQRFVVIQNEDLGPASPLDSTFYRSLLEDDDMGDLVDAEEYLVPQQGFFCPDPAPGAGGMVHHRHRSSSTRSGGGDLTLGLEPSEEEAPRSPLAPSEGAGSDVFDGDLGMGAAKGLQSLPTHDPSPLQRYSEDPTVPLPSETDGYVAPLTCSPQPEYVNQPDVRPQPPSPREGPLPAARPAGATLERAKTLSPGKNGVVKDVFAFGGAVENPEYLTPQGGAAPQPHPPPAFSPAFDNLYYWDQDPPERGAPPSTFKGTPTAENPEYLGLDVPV
EGFR wild type (EGFR WT), sequence (P00533 25-1210): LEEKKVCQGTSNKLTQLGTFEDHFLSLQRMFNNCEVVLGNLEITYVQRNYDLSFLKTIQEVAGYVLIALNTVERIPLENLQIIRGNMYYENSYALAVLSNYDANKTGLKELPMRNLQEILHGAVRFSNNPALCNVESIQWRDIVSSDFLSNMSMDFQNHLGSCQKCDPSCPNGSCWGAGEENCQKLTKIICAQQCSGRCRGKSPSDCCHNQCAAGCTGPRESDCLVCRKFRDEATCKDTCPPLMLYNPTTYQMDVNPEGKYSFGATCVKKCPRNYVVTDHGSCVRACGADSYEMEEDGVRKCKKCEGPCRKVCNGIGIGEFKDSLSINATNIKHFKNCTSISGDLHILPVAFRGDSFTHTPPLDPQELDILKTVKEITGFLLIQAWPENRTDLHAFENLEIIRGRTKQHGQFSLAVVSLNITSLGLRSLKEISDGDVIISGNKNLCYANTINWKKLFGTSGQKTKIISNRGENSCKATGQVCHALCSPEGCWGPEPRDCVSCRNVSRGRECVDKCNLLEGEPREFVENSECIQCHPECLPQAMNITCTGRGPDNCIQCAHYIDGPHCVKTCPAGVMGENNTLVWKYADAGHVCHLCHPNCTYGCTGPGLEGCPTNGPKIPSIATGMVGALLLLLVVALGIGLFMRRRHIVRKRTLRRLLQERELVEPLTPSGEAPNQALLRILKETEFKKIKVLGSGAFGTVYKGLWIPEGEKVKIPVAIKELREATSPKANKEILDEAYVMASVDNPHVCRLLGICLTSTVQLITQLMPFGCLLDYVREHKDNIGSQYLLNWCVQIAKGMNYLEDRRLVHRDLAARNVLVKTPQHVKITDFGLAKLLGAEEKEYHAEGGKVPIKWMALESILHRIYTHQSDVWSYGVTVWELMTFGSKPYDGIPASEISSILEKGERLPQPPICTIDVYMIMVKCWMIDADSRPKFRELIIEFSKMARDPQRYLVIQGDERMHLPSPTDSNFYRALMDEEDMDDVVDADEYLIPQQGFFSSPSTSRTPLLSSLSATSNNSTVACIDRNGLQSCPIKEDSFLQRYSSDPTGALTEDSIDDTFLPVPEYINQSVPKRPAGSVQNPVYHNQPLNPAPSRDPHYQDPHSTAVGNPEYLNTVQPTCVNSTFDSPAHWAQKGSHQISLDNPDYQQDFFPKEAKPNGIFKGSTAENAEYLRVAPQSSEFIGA

| SMILES | IC50 [1] | IC50 [2] | IC50 [3] | efflux ratio at 2 h, 1 μM [4] | IC50 ([5]; read-out: Assay 1 IC50) | efflux ratio at 2 h, 1 μM [6] | IC50 [7] | IC50 ([5]; Assay 1 IC50 (nM)) | Assay 9 Pe Ratio [4] | Assay 6 Pe Ratio [6] |
| --- | --- | --- | --- | --- | --- | --- | --- | --- | --- | --- |
| CON1CCN(c2ncc3ncnc(Nc4ccc(Oc5ccc6c(c5)ncn6C)c(C)c4)c3n2)CC1 [Example 35, 6-(4-methoxypiperazin-1-yl)-N-(3-methyl-4-((1-methyl-1H-benzo[d]imidazol-5-yl)oxy)phenyl)pyrimido[5,4-d]pyrimidin-4-amine] | 7.8 nM | ≥ 10 µM | ≥ 5 µM | 1.2 | 33.5 nM | 1.3 | 94.2 nM |  |  |  |
| Cc1cc(Nc2ncnc3cnc(N4CC[C@H](C(F)F)C4)nc23)ccc1Oc1ccc2c(c1)ncn2C [Example 252] | 25.7 nM | ≥ 10 µM | ≥ 5 µM | 2.6 | 92.9 nM | 0.7 | 242 nM |  |  |  |
| Cc1cc(Nc2ncnc3cnc(N4CC5(CCO5)C4)nc23)ccc1Oc1ccc2c(c1)ncn2C [Example 282] | 26.3 nM | ≥ 10 µM | ≥ 5 µM | 3.5 | 40 nM | 1.9 | 83.9 nM |  |  |  |
| Cc1cc(Nc2ncnc3cnc(NCC(F)F)nc23)ccc1Oc1cc(F)c2c(c1)ncn2C [Example 207, N2-(2,2-difluoroethyl)-N8-(4-((7-fluoro-1-methyl-1H-benzo[d]imidazol-5-yl)oxy)-3-methylphenyl)pyrimido[5,4-d]pyrimidine-2,8-diamine] | 16.9 nM | 1.72 µM | ≥ 5 µM | 1.7 | 22.4 nM | 1.6 | 45.1 nM |  |  |  |
| Cc1cc(Nc2ncnc3cnc(N4C[C@H]5C[C@@H]4CO5)nc23)ccc1Oc1ccc2c(c1)ncn2C [Example 262] | 44 nM | ≥ 10 µM | ≥ 5 µM | 2.7 | 22.3 nM | 1.7 | 116 nM |  |  |  |
| Cc1cc(Nc2ncnc3cnc(N(C)CC4CCO4)nc23)ccc1Oc1ccc2c(c1)ncn2C (centres unmarked) [Example 350] | 26.3 nM | ≥ 10 µM | ≥ 5 µM | 3.5 | 40 nM | 1.9 | 83.9 nM |  |  |  |
| Cc1nc(-c2ncc3ncnc(Nc4ccc(Oc5ccc6c(c5)ncn6C)c(C)c4)c3n2)cs1 [Example 247] | 3.5 nM | ≥ 10 µM | ≥ 5 µM | 4.7 | 81.7 nM | 1.6 | 96.9 nM |  |  |  |
| Cc1cc(Nc2ncnc3cnc(N4C(C)CCS4(=O)=O)nc23)ccc1Oc1ccc2c(c1)ncn2C.O=C(O)C(F)(F)F (centres unmarked) [Example 79, 3-methyl-2-(8-((3-methyl-4-((1-methyl-1H-benzo[d]imidazol-5-yl)oxy)phenyl)amino)pyrimido[5,4-d]pyrimidin-2-yl)isothiazolidine 1,1-dioxide 2,2,2-trifluoroacetate] | 7.7 nM | 3.49 µM | ≥ 5 µM | 9.8 |  | 7.1 | 33.8 nM | 26.3 nM |  |  |
| [2H]C([2H])([2H])Nc1ncc2ncnc(Nc3ccc(Oc4ccc5c(c4)ncn5C)c(C)c3)c2n1 [Example 65, N2-(methyl-d3)-N8-(3-methyl-4-((1-methyl-1H-benzo[d]imidazol-5-yl)oxy)phenyl)pyrimido[5,4-d]pyrimidine-2,8-diamine] | 8.8 nM | 3 µM | ≥ 5 µM | 1.9 | 8.6 nM | 1.6 | 23 nM |  |  |  |
| Cc1cc(Nc2ncnc3cnc(N4CCOCC4)nc23)c(F)cc1Oc1ccc2c(c1)ncn2C.O=C(O)C(F)(F)F [Example 78, N-(2-fluoro-5-methyl-4-((1-methyl-1H-benzo[d]imidazol-5-yl)oxy)phenyl)-6-morpholinopyrimido[5,4-d]pyrimidin-4-amine 2,2,2-trifluoroacetate] | 36.7 nM | ≥ 10 µM | ≥ 5 µM | 1.1 |  | 1.3 | 422 nM | 60.4 nM |  |  |
| Cc1cc(Nc2ncnc3cnc(N4C[C@@H]5CC[C@H]4CO5)nc23)ccc1Oc1ccc2c(c1)ncn2C [Example 53, 6-((1S,4S)-2-oxa-5-azabicyclo[2.2.2]octan-5-yl)-N-(3-methyl-4-((1-methyl-1H-benzo[d]imidazol-5-yl)oxy)phenyl)pyrimido[5,4-d]pyrimidin-4-amine] | 42.7 nM | ≥ 10 µM | ≥ 5 µM | 1.6 | 25 nM | 1.7 | 75.2 nM |  |  |  |
| Cc1cc(Nc2ncnc3cnc(N4CC[C@@H](C(F)F)C4)nc23)ccc1Oc1ccc2c(c1)ncn2C [Example 253] | 39.3 nM | ≥ 10 µM | ≥ 5 µM | 2 | 93 nM | 1.2 | 171 nM |  |  |  |
| Cc1cc(Nc2ncnc3cnc(-c4cccnc4)nc23)ccc1Oc1ccc2c(c1)ncn2C [Example 233] | 15.7 nM | 3.74 µM | ≥ 5 µM | 1.6 | 27.5 nM | 1.5 | 41.5 nM |  |  |  |
| Cc1cc(Nc2ncnc3cnc(N4CCOCC4)nc23)ccc1Oc1cc(F)c2c(c1)ncn2C.O=C(O)C(F)(F)F [Example 70, N-(4-((7-fluoro-1-methyl-1H-benzo[d]imidazol-5-yl)oxy)-3-methylphenyl)-6-morpholinopyrimido[5,4-d]pyrimidin-4-amine 2,2,2-trifluoroacetate] | 4.9 nM | ≥ 10 µM | ≥ 5 µM | 1 |  | 1.8 | 70.3 nM | 106 nM |  |  |
| Cc1cc(Nc2ncnc3cnc(-c4ccccn4)nc23)ccc1Oc1ccc2c(c1)ncn2C [Example 239] | 9.1 nM | ≥ 10 µM | ≥ 5 µM | 3.5 | 127 nM | 2.1 | 107 nM |  |  |  |
| Cn1cnc2cc(Oc3ccc(Nc4ncnc5cnc(N6CCOCC6)nc45)cc3F)ccc21.O=C(O)C(F)(F)F [Example 80, N-(3-fluoro-4-((1-methyl-1H-benzo[d]imidazol-5-yl)oxy)phenyl)-6-morpholinopyrimido[5,4-d]pyrimidin-4-amine 2,2,2-trifluoroacetate] | 47.1 nM | ≥ 10 µM | ≥ 5 µM | 2.4 |  | 2.1 | 431 nM | 35.6 nM |  |  |
| Cc1cc(Nc2ncnc3cnc(N4CCOC(C)(C)C4)nc23)ccc1Oc1ccc2c(c1)ncn2C [Example 272] | 40.2 nM | 9 µM | ≥ 5 µM | 0.6 | 67.3 nM | 1.6 | 104 nM |  |  |  |
| Cc1cc(Nc2ncnc3cnc(N4C[C@@H]5C[C@H]4CO5)nc23)ccc1Oc1ccc2c(c1)ncn2C [Example 274] | 12.1 nM | 3.25 µM | ≥ 5 µM | 1.7 | 30.7 nM | 2.4 | 38.8 nM |  |  |  |
| Cc1cc(Nc2ncnc3cnc(N4CCC4)nc23)ccc1Oc1ccc2c(c1)ncn2C [Example 36, 6-(azetidin-1-yl)-N-(3-methyl-4-((1-methyl-1H-benzo[d]imidazol-5-yl)oxy)phenyl)pyrimido[5,4-d]pyrimidin-4-amine] | 41.6 nM | 9 µM | ≥ 5 µM | 0.9 | 26.3 nM | 1.2 | 64.6 nM |  |  |  |
| Cc1cc(Nc2ncnc3cnc(N4CCO[C@H]5C[C@H]54)nc23)ccc1Oc1ccc2c(c1)ncn2C (single isomer, unassigned) [Example 60b] | 17.9 nM | 5.68 µM | ≥ 5 µM |  | 16.1 nM |  | 18.7 nM |  | 1.4 | 1.9 |
